# Residue numbers refer to the chain shown, from its start. Where two headings read alike, the source gives them in different places. Starred links: 1 amine or outer side, 2 acyl side, 3 side chain; linkers in the order of their positions; H or OH if unused. Non-standard residues stand in square brackets, D forms with d. Residues, ends and D or L forms follow the SMILES beside them. X2 = CCCC[C@@H](CN[*:1])C(=O)[*:2]
# Experiments:
# PTHR1-1363Y = target: T1, PTHR1-1363Y (Homo sapiens, UniProt Q03431, I363Y); assay: Activation of PTHR1 mutant PTHR1-1363Y; type: cell-based; details: data not shown
# T1 construct: expressed in transfected cells
# T1 sequence (Q03431 27-593 I363Y): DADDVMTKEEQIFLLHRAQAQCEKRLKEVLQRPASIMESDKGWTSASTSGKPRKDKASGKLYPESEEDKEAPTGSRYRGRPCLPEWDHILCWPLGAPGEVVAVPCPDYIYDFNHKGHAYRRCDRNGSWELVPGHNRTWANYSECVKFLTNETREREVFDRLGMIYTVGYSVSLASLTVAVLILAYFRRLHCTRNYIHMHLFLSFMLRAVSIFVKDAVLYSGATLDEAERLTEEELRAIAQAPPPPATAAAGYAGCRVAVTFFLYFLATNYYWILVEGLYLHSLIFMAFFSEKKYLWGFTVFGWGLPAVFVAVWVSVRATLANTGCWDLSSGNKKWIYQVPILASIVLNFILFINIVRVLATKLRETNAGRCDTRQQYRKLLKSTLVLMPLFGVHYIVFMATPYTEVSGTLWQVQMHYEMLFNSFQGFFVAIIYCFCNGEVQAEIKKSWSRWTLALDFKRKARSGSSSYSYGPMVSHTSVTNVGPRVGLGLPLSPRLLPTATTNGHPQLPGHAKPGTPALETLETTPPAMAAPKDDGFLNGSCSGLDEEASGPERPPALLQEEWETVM
# Description: Reciprocal point mutations of PTHR1 were investigated to see if they would enhance the signaling activity of PTHR2-selective agonists.
# PTHR1 [1] = target: T2, PTHR1 (Homo sapiens, UniProt Q03431); assay: PTHR1 activation, cAMP production (GloSensor) in HEK293 cells; type: cell-based; parameters: expressed in transfected cells; details: for Emax: HEK293
# T2 sequence (Q03431 27-593): T1 sequence (Q03431 27-593 I363Y) with Y337I
# PTHR2 [2] = target: T3, PTHR2 (Homo sapiens, UniProt P49190); assay: PTHR2 activation, cAMP production (GloSensor) in HEK293 cells; type: cell-based; parameters: expressed in transfected cells; details: for Emax: HEK293
# T3 sequence (P49190 25-550): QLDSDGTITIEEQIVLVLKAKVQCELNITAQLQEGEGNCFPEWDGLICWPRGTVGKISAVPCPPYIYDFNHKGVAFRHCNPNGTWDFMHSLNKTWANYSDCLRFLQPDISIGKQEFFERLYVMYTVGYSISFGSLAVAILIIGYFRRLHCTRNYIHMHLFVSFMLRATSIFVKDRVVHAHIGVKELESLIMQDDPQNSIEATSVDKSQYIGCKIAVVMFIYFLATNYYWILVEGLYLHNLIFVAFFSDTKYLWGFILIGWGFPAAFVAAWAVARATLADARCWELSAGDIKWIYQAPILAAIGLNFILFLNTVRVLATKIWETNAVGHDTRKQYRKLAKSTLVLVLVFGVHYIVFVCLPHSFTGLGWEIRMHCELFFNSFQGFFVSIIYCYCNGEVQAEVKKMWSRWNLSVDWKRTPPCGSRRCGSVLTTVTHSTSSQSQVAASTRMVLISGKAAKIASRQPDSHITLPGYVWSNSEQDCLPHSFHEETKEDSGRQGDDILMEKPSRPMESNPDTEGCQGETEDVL
# Outline: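 HEK293 cells stably expressing PTHR2; receptor activation read as cAMP production by GloSensor luminescence. Dose-response curves fit with a four-parameter sigmoidal equation; data are mean±s.e.m. of four independent measurements.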
# PTHR2 [3] = target: T3, PTHR2; assay: Wash-out assay, duration of PTHR2 activation; type: cell-based; parameters: expressed in transfected cells; host or cells: cells stably expressing PTHR2; details: for Normalized ligand-off AUC: PTHR2, after washout, PTH(1-34)-NH2 = 100; for Emax: read-out: Normalized ligand-on Emax
# Description: (§1) Duration of activation for PTHR1 and PTHR2. To assess the duration of PTHR1 and PTHR2 activation induced by α/β-peptides 14 and 15, the time course of cAMP production by each receptor was examined after stimulation with an agonist and subsequent washing of the cells to remove unbound peptide (wash-out assay). […] During the initial “ligand-on” phase, cells stably expressing PTHR1 or PTHR2 were stimulated with an agonist concentration corresponding to ˜EC80; the medium contained D-luciferin. […] After the addition of fresh medium containing D-luciferin, the luminescence decay is measured. The area under the “ligand-off” curve (AUC) reflects the duration of signaling, which may be related to residence time of the agonist on the receptor but could have other origins at the molecular level.
# PTHR1 [4] = target: T2, PTHR1; assay: Wash-out assay, duration of PTHR1 activation; type: cell-based; parameters: expressed in transfected cells; host or cells: cells stably expressing PTHR1
# Description: as §1
# PTHR1 and PTHR2 = assay: Tolerance pattern of β residues for PTHR1 and PTHR2 activation; type: cell-based; parameters: key: “*” denotes potent PTHR1-selective agonism; “#” denotes potent PTHR2-selective agonism; “*#” denotes potent agonism of both PTHR1 and PTHR2; details: PTHR1 vs PTHR2 agonism
# Description: Enhanced selectivity via double α→β replacement.
# PTHR1 [5] = assay: β-arr1 | pEC50
# PTHR1 [6] = assay: β-arr2 | pEC50
# PTHR1 [7] = assay: cAMP | pEC50
# Description: Table printed on a drawing sheet, FIG. 2
# (§2) Head of the field: cAMP | pEC50
# First copying reader's note: The error (±) stands inside the result cells.
# PTHR1 [8] = assay: β-arr1 | pEC50; remark: listed apart in the source
# PTHR1 [9] = assay: β-arr2 | pEC50; remark: listed apart in the source
# PTHR1 [10] = assay: cAMP | pEC50; remark: listed apart in the source
# Description: Table printed on a drawing sheet, FIG. 5
# as §2
# The patent's description of the figure: FIG. 5 depicts graphs and a corresponding table reporting the EC50 and Emax of PTHR1 agonists Ligands 8-13 (SEQ. ID. NOS: 8-13) for cAMP signaling and β-arrestin (βarr) recruitment.
# First copying reader's note: Each value cell carries its own ± error; the rows for Ligand 8, 10 and 12 are printed on dark shading.
# Where the first naming reader finds the target: description_of_the_figure: EC50 and Emax of PTHR1 agonists Ligands 8-13 (SEQ. ID. NOS: 8-13) for cAMP signaling and β-arrestin (βarr) recruitment.
# [11] = HEK-293 cells, GloSensor cAMP, read-out: EC50 (nM) of PTHR2 Activation
molecule,measurement,setting,value
CC[C@H](C)[C@H](NC(=O)[C@H](CCC(=O)O)NC(=O)[C@H](CO)NC(=O)[C@@H](CNC(=O)[C@@H](N)CO)C(C)C)C(=O)N[C@@H](CCC(N)=O)CC(=O)N[C@@H](CC(C)C)C(=O)N[C@@H](CCSC)C(=O)N[C@@H](Cc1c[nH]cn1)C(=O)N[C@@H](CC(N)=O)C(=O)N[C@@H](CC(C)C)C(=O)NCC(=O)N[C@@H](CCCCN)C(=O)N[C@@H](Cc1c[nH]cn1)C(=O)N[C@@H](CC(C)C)C(=O)N[C@@H](CC(N)=O)C(=O)N[C@@H](CO)C(=O)N[C@@H](CCSC)C(=O)N[C@@H](CCC(=O)O)C(=O)N[C@@H](CCCNC(=N)N)C(=O)N[C@H](C(=O)N[C@@H](CCC(=O)O)C(=O)N[C@@H](Cc1c[nH]c2ccccc12)C(=O)N[C@@H](CC(C)C)C(=O)N[C@@H](CCCNC(=N)N)C(=O)N[C@@H](CCCCN)C(=O)N[C@@H](CCCCN)C(=O)N[C@@H](CC(C)C)C(=O)N[C@@H](CCC(N)=O)C(=O)N[C@@H](CC(=O)O)C(=O)N[C@H](C(=O)N[C@@H](Cc1c[nH]cn1)C(=O)N[C@@H](CC(N)=O)C(=O)N[C@@H](Cc1ccccc1)C(N)=O)C(C)C)C(C)C [Ligand 15],agonist activity at PTHR1-1363Y (in words),PTHR1-1363Y,even less susceptible to activation
same,Emax,PTHR1 [1],79 ± 6%
same,PTHR1 agonist potency decline,PTHR1 [1]; relative to PTH(1-34)-NH2,~100 fold
same,Emax,PTHR2 [2],104 ± 2%
same,Normalized ligand-off AUC,PTHR2 [3]; listed as α/β-peptide 1,197 ± 16
same,Normalized ligand-off AUC,PTHR2 [3]; listed as α/β-peptide 15,more prolonged signaling
same,Emax,PTHR2 [3],103 ± 1%
"CC[C@H](C)[C@H](NC(=O)[C@H](CCC(=O)O)NC(=O)[C@H](CO)NC(=O)[C@@H](NC(=O)[C@@H](N)CO)C(C)C)C(=O)N[C@@H](CCC(N)=O)C(=O)N[C@@H](CC(C)C)C(=O)N[C@@H](CCSC)C(=O)N[C@@H](Cc1c[nH]cn1)C(=O)N[C@@H](CC(N)=O)C(=O)N[C@@H](CC(C)C)C(=O)NCC(=O)N[C@@H](CCCCN)C(=O)N[C@@H](Cc1c[nH]cn1)C(=O)N[C@@H](CC(C)C)C(=O)N[C@@H](CC(N)=O)C(=O)N[C@@H](CO)C(=O)N[C@@H](CCSC)C(=O)N[C@@H](CCC(=O)O)C(=O)N[C@@H](CCCNC(=N)N)C(=O)N[C@H](C(=O)N[C@@H](CCC(=O)O)C(=O)N[C@@H](Cc1c[nH]c2ccccc12)C(=O)N[C@@H](CC(C)C)C(=O)N[C@@H](CCCNC(=N)N)C(=O)N[C@@H](CCCCN)C(=O)N[C@@H](CCCCN)C(=O)N[C@@H](CC(C)C)C(=O)N[C@@H](CCC(N)=O)C(=O)N[C@@H](CC(=O)O)C(=O)N[C@H](C(=O)N[C@@H](Cc1c[nH]cn1)C(=O)N[C@@H](CC(N)=O)C(=O)N[C@@H](Cc1ccccc1)C(N)=O)C(C)C)C(C)C [PTH(1-34)-NH2, reference compound]",Emax,PTHR1 [1],100%
same,Emax,PTHR2 [2],100%
same,EC50,PTHR2 [2]; [11],0.97 nM
same,EC50,"PTHR2 [2]; Table 5, HEK293 cells stably expressing PTHR2, read-out: PTHR2 EC50",1.07 ± 0.14 nM
same,Normalized ligand-off AUC,"PTHR1 [4]; PTHR1, after washout, PTH(1-34)-NH2 = 100",100
same,Emax,PTHR1 [4]; read-out: Normalized ligand-on Emax,100%
same,Normalized ligand-off AUC,PTHR2 [3],100
same,Emax,PTHR2 [3],100%
CCCC[C@@H](CNC(=O)[C@H](CC(C)C)NC(=O)[C@H](CCC(N)=O)NC(=O)[C@@H](NC(=O)[C@H](CCC(=O)O)NC(=O)[C@H](CO)NC(=O)[C@@H](NC(=O)[C@@H](N)CO)C(C)C)[C@@H](C)CC)C(=O)N[C@@H](Cc1c[nH]cn1)C(=O)N[C@@H](CC(N)=O)C(=O)N[C@@H](CC(C)C)C(=O)NCC(=O)N[C@@H](CCCCN)C(=O)N[C@@H](Cc1c[nH]cn1)C(=O)N[C@@H](CC(C)C)C(=O)N[C@@H](CC(N)=O)C(=O)N[C@@H](CO)C(=O)N[C@@H](CCSC)C(=O)N[C@@H](CCC(=O)O)C(=O)N[C@@H](CCCNC(=N)N)C(=O)N[C@H](C(=O)N[C@@H](CCC(=O)O)C(=O)N[C@@H](Cc1c[nH]c2ccccc12)C(=O)N[C@@H](CC(C)C)C(=O)N[C@@H](CCCNC(=N)N)C(=O)N[C@@H](CCCCN)C(=O)N[C@@H](CCCCN)C(=O)N[C@@H](CC(C)C)C(=O)N[C@@H](CCC(N)=O)C(=O)N[C@@H](CC(=O)O)C(=O)N[C@H](C(=O)N[C@@H](Cc1c[nH]cn1)C(=O)N[C@@H](CC(N)=O)C(=O)N[C@@H](Cc1ccccc1)C(N)=O)C(C)C)C(C)C [SEQ. ID. NO: 37] (H-SVSEIQL[X2]HNLGKHLNSMERVEWLRKKLQDVHNF-NH2; N-terminus assumed),Tolerance Pattern of β AA,PTHR1 and PTHR2,*
same,EC50,"PTHR1 [1]; HEK-293 cells, GloSensor cAMP, read-out: EC50 (nM) of PTHR1 Activation",0.38 ± 0.07 nM
same,EC50,"PTHR1 [1]; Table 8, hPTHR1, read-out: PTHR1 EC50",10.3 ± 1.65 nM
same,PTHR1 Activation: Derivative EC50/PTH EC50,"PTHR1 [1]; normalized to EC50 of PTH(1-34)-NH2 ([…]), cAMP production",1.00
same,EC50,PTHR2 [2]; [11],10.3 ± 1.65 nM
same,PTHR2 Activation: Derivative EC50/PTH EC50,"PTHR2 [2]; normalized to EC50 of PTH(1-34)-NH2 ([…] printed), cAMP production",11.85
BA058: also known as abaloparatide,β-arr1 | pEC50,PTHR1 [5],8.38 ± 0.12
same,β-arr2 | pEC50,PTHR1 [6],8.52 ± 0.06
same,cAMP | pEC50,PTHR1 [7],10.05 ± 0.05
"LA-PTH: long-acting PTH analog (AVAEIQLMHQRAKWIQDARRRAFLHKLIAEIHTAEI; Long-acting (LA)-PTH, a parathyroid hormone analog)",β-arr1 | pEC50,PTHR1 [5],8.16 ± 0.06
same,β-arr2 | pEC50,PTHR1 [6],8.20 ± 0.06
same,cAMP | pEC50,PTHR1 [7],9.06 ± 0.06
Ligand 13: PTH(1-34) analogue with replaced residue at position 8 (character image) (SVSEIQLXHNLGKHLNSMERVEWLRKKLQDVHNF; non-natural residue at position 8; MOD_RES (8)..(8) X at position 8 is (S*)-Beta-2-Norleucine),β-arr1 | pEC50,PTHR1 [8],8.03 ± 0.10
same,β-arr2 | pEC50,PTHR1 [9],8.16 ± 0.09
same,cAMP | pEC50,PTHR1 [10],9.44 ± 0.08
SVSEIQL^nLHNLGKHLNSMERVEWLRKKLQDVHNF (SVSEIQLXHNLGKHLNSMERVEWLRKKLQDVHNF; (R)-beta2-Nle at position 8; MOD_RES (8)..(8) X at position 8 is (R)-Beta-2-Norleucine.) [Ligand 11],β-arr1 | pEC50,PTHR1 [8],8.33 ± 0.05
same,β-arr2 | pEC50,PTHR1 [9],8.28 ± 0.02
same,cAMP | pEC50,PTHR1 [10],9.03 ± 0.10
